Biological target: T1, AcrIF11Pae2 (Escherichia coli, UniProt A0AAB0B261)
T1 construct: pET28b in E. coli BL21(DE3); 13C/15N-labelled
Experiment: NMR chemical shift perturbation on NAD titration
Type: binding
Conditions: NMR structure 8DWQ is without NAD; structure sample 50 mM KPi pH 7.4, 298 K; titration conditions not stated

T1 sequence (A0AAB0B261 entry or part of it): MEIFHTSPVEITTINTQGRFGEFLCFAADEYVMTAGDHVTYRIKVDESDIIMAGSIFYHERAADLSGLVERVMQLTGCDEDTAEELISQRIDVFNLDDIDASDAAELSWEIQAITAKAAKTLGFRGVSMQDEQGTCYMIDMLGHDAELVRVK

NC(=O)c1ccc[n+]([C@@H]2O[C@H](COP(=O)(O)OP(=O)(O)OC[C@H]3O[C@@H](n4cnc5c(N)ncnc54)[C@H](O)[C@@H]3O)[C@@H](O)[C@H]2O)c1 [NAD]
NMR chemical shift perturbation on NAD titration: upon titration of cofactor NAD, the largest chemical shift perturbations occurred in the beta sheet region

Reference: publication PMC12421852, “AcrIF11 is a potent CRISPR-specific ADP-ribosyltransferase encoded by phage and plasmid” (mBio, 2025)
